# Reference: PubChem BioAssay (NCI)
#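 Dose response: 5 concentrations. Exposure: 48 h. Format: 96-well plates. Endpoint: linear interpolation; highest concentration if not reached. Here, GI50 denotes the concentration required for 50% inhibition of growth. TGI: concentration producing complete growth inhibition.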
# Key:
# Experiment in all cases: DTP human tumour cell line panel, 48 h
# [1] = test system: OVCAR-4 ovarian
# [2] = test system: SW-620 colon
# [3] = test system: SK-MEL-5 melanoma
# [4] = test system: U251 CNS
# [5] = test system: CCRF-CEM leukemia
# [6] = test system: CAKI-1 renal
# [7] = test system: EKVX NSCLC
# [8] = test system: SF-268 CNS
# [9] = test system: HL-60(TB) leukemia
# [10] = test system: OVCAR-8 ovarian
# [11] = test system: NCI/ADR-RES ovarian
# [12] = test system: ACHN renal
# [13] = test system: MDA-MB-435
# [14] = test system: SK-MEL-28 melanoma
# [15] = test system: MDA-MB-468 breast
# [16] = test system: UACC-62 melanoma
# [17] = test system: DU-145 prostate
# [18] = test system: K-562 leukemia
# [19] = test system: A549 NSCLC
# [20] = test system: T-47D breast
# [21] = test system: HT29 colon
# [22] = test system: SF-539 CNS
# [23] = test system: HCC-2998 colon
# [24] = test system: NCI-H522 lung
# [25] = test system: MOLT-4 leukemia
# [26] = test system: KM12 colon
# [27] = test system: SNB-19 CNS
# [28] = test system: TK-10 renal
# [29] = test system: OVCAR-5 ovarian
# [30] = test system: NCI-H23 lung
# [31] = test system: PC-3 prostate
# [32] = test system: HS 578T breast
# [33] = test system: SNB-75 CNS
# [34] = test system: 786-0 renal
# [35] = test system: SF-295 CNS
# [36] = test system: MDA-MB-231 breast
# [37] = test system: NCI-H460 lung
# [38] = test system: M14 melanoma
# [39] = test system: IGROV1 ovarian
# [40] = test system: HOP-92 NSCLC
# [41] = test system: HCT-15 colon
# [42] = test system: RPMI-8226 leukemia
# [43] = test system: LOX IMVI melanoma
# [44] = test system: HOP-62 NSCLC
# [45] = test system: NCI-H226 lung
# [46] = test system: SN12C renal
# [47] = test system: BT-549 breast
# [48] = test system: RXF 393 renal
# [49] = test system: SK-MEL-2 melanoma
# [50] = test system: COLO 205 colon
# [51] = test system: SR leukemia
# [52] = test system: UO-31 renal
# [53] = test system: OVCAR-3 ovarian
# [54] = test system: MALME-3M melanoma
# [55] = test system: SK-OV-3 ovarian
# [56] = test system: UACC-257 melanoma
# [57] = test system: A498 renal
# [58] = test system: MCF7 breast
structure (smiles),measurement,setting,value
CC(=O)Oc1ccccc1C(=O)Oc1ccc(C(=O)/C=C/c2ccncc2)cc1,GI50,[1],29.7 µM
same,TGI,[1],> 100 µM
same,GI50,[2],3.04 µM
same,TGI,[2],18.9 µM
same,GI50,[3],12.4 µM
same,TGI,[3],29.5 µM
same,GI50,[4],3.77 µM
same,TGI,[4],70.8 µM
same,GI50,[5],2.38 µM
same,TGI,[5],> 100 µM
same,GI50,[6],19.3 µM
same,TGI,[6],> 100 µM
same,GI50,[7],14.7 µM
same,TGI,[7],45.7 µM
same,GI50,[8],25 µM
same,TGI,[8],> 100 µM
same,GI50,[9],4.93 µM
same,TGI,[9],34.1 µM
same,GI50,[10],24.9 µM
same,TGI,[10],> 100 µM
same,GI50,[11],20.7 µM
same,TGI,[11],> 100 µM
same,GI50,[12],15.6 µM
same,TGI,[12],44.9 µM
same,GI50,[13],4.45 µM
same,TGI,[13],44.3 µM
same,GI50,[14],19.3 µM
same,TGI,[14],62.1 µM
same,GI50,[15],2.36 µM
same,TGI,[15],8.34 µM
same,GI50,[16],16.6 µM
same,TGI,[16],42.3 µM
same,GI50,[17],10.5 µM
same,TGI,[17],44.1 µM
same,GI50,[18],2.29 µM
same,TGI,[18],> 100 µM
same,GI50,[19],15.1 µM
same,TGI,[19],> 100 µM
same,GI50,[20],23.8 µM
same,TGI,[20],97.6 µM
same,GI50,[21],3.6 µM
same,TGI,[21],20.1 µM
same,GI50,[22],4.29 µM
same,TGI,[22],17.4 µM
same,GI50,[23],4.83 µM
same,TGI,[23],16.4 µM
same,GI50,[24],4.85 µM
same,TGI,[24],21.5 µM
same,GI50,[25],15.9 µM
same,TGI,[25],85.9 µM
same,GI50,[26],3.57 µM
same,TGI,[26],22.2 µM
same,GI50,[27],15.3 µM
same,TGI,[27],47.3 µM
same,GI50,[28],37.4 µM
same,TGI,[28],> 100 µM
same,GI50,[29],24.9 µM
same,TGI,[29],99.1 µM
same,GI50,[30],10.8 µM
same,TGI,[30],30.8 µM
same,GI50,[31],10.4 µM
same,TGI,[31],> 100 µM
same,GI50,[32],22.5 µM
same,TGI,[32],> 100 µM
same,GI50,[33],15.8 µM
same,TGI,[33],> 100 µM
same,GI50,[34],16.1 µM
same,TGI,[34],> 100 µM
same,GI50,[35],8.56 µM
same,TGI,[35],58.1 µM
same,GI50,[36],8.6 µM
same,TGI,[36],36.2 µM
same,GI50,[37],11.2 µM
same,TGI,[37],48.9 µM
same,GI50,[38],14.5 µM
same,TGI,[38],> 100 µM
same,GI50,[39],7.4 µM
same,TGI,[39],54 µM
same,GI50,[40],21.1 µM
same,TGI,[40],> 100 µM
same,GI50,[41],3.55 µM
same,TGI,[41],18.8 µM
same,GI50,[42],1.58 µM
same,TGI,[42],7.19 µM
same,GI50,[43],1.96 µM
same,TGI,[43],5.87 µM
same,GI50,[44],27.5 µM
same,TGI,[44],> 100 µM
same,GI50,[45],26.4 µM
same,TGI,[45],> 100 µM
same,GI50,[46],10.1 µM
same,TGI,[46],45.5 µM
same,GI50,[47],17 µM
same,TGI,[47],38.7 µM
same,GI50,[48],5.25 µM
same,TGI,[48],20.8 µM
same,GI50,[49],32.5 µM
same,TGI,[49],> 100 µM
same,GI50,[50],12.7 µM
same,TGI,[50],40.5 µM
same,GI50,[51],0.407 µM
same,TGI,[51],> 100 µM
same,GI50,[52],10.3 µM
same,TGI,[52],24 µM
same,GI50,[53],5.3 µM
same,TGI,[53],26 µM
same,GI50,[54],16.5 µM
same,TGI,[54],51.4 µM
same,GI50,[55],30.9 µM
same,TGI,[55],> 100 µM
same,GI50,[56],16.9 µM
same,TGI,[56],63.4 µM
same,GI50,[57],20.5 µM
same,TGI,[57],71.4 µM
same,GI50,[58],1.1 µM
same,TGI,[58],9.24 µM
